The record followed here is patent US20100099676A1 (SHIONOGI & CO., LTD., priority 2006, published 2010).

This experiment deals with T1, MMP-13 (Homo sapiens, UniProt P45452).
T1 construct: purchased Calbiochem (EMD/MERCK Biosciences)
Nature of the experiment: Enzyme inhibiting activity of MMPs, fluorogenic peptide substrate. Format: biochemical. The note with it: compounds not described in the Tables; read-out: inhibiting activity for MMP-13. How it is done:
Various human MMPs (MMP-2, MMP-9 and MMP-13) were purchased from Calbiochem (EMD/MERCK Biosciences).
Since the purchased MMP-13 was Proenzyme, the activated one was used, which was incubated at 37° C. for 2 hours after the successive addition of an assay buffer (containing 50 mM Tris-HCl (pH7.6), 0.3 M NaCl, 10 mM CaCl2, 0.005% Brij35) and APMA (final concentration 1 mM) to the enzyme solution.
The enzyme activity of MMPs was measured according to the method described in C. Graham Knight, Frances Willenbrock and Gillian Murphy: A novel coumarin-labelled peptide for sensitive continuous assays of the matrix metalloproteinases: FEBS LETT., 296, (1992), 263-266. As a substrate, MOCAc-Pro-Leu-Gly-Leu-A2Pr(DNP)- Ala-Arg-NH2 (Peptide Institute, Inc. Osaka, Japan) was used, and the following four assays are performed per compound (inhibitor) for measuring the inhibiting activity.
(A) Substrate (synthetic substrate), enzyme (MMPs), inhibitor
(B) Substrate (synthetic substrate), inhibitor
(C) Substrate (synthetic substrate), enzyme (MMPs)
(D) Substrate (synthetic substrate)
In each assay, the fluorescent intensity was measured, and inhibition (%) was calculated by the following equation.
Inhibition (%)=[I−(A−B)/(C−D)]×100
IC50 indicates a concentration at which inhibition (%) is 50%.
Turning to `C[C@H](NS(=O)(=O)N1CCN(c2ccc(C#Cc3ccc4cccc(C(N)=O)c4c3)cc2)CC1)C(=O)O` [Compound I-105, (S)-2-{4-[4-(8-carbamoylnaphthalen-2-ylethynyl)-phenyl]-piperazine-1-sulfonylamino}-proponic acid], the IC50 is 0.01 to 0.1 µM.

For the molecule `CO/N=C(/C)c1cccc2ccc(C#Cc3ccc(N4CCN(S(=O)(=O)N[C@H](C)C(=O)O)CC4)cc3)cc12` [Compound I-96, (R)-2-{4-[4-(8-{1-[(Z)-methoxyimino]-ethyl}-naphthalen-2-ylethynyl)-phenyl]-piperazine-1-sulfonylamino}-proponic acid], the IC50 fell in the range of 0.01 to 0.1 µM.

In the case of `C[C@@H](NS(=O)(=O)N1CCN(c2ccc(C#Cc3ccc4cccc(S(C)(=O)=O)c4c3)cc2)CC1)C(=O)O` [Compound I-83, (R)-2-{4-[4-(8-methanesulfonylnaphthalen-2-ylethynyl)-phenyl]-piperazine-1-sulfonylamino}-proponic acid], the IC50 lay within 0.01 to 0.1 µM.

Regarding `CCC[C@H](NS(=O)(=O)N1CCN(c2ccc(/C=C/c3ccc4cccc(C(N)=O)c4c3)cc2)CC1)C(=O)O` [Compound I-59, (S)-2-(4-{4-[(E)-2-(8-carbamoylnaphthalen-2-yl)-vinyl]-phenyl}-piperazine-1-sulfonylamino)-pentanoic acid], the IC50 is 0.01 to 0.1 µM.

For `CSc1cccc2ccc(C#Cc3ccc(N4CCN(S(=O)(=O)N[C@H](C)C(=O)O)CC4)cc3)cc12` [Compound I-82, (R)-2-{4-[4-(8-methylsulfanylnaphthalen-2-ylethynyl)-phenyl]-piperazine-1-sulfonylamino}-proponic acid], the IC50 was 0.01 to 0.1 µM.

On to `CC(C)C[C@H](NS(=O)(=O)N1CCN(c2ccc(C#Cc3ccc4cccc(C(N)=O)c4c3)cc2)CC1)C(=O)O` [Compound I-55, (S)-2-{4-[4-(8-carbamoylnaphthalen-2-ylethynyl)-phenyl]-piperazine-1-sulfonylamino}-4-methylpentanoic acid], for which the IC50 lay in the range of 0.01 to 0.1 µM.

With `C[C@@H](NS(=O)(=O)N1CCN(c2ccc(C#Cc3ccc4cccc(S(N)(=O)=O)c4c3)cc2)CC1)C(=O)O` [Compound I-81, (R)-2-{4-[4-(8-sulfamoylnaphthalen-2-ylethynyl)-phenyl]-piperazine-1-sulfonylamino}-proponic acid], the IC50 was in the range of 0.01 to 0.1 µM.

For the molecule `COc1cccc2ccc(C#Cc3ccc(N4CCN(S(=O)(=O)N[C@H](C)C(=O)O)CC4)cc3)cc12` [Compound I-99, (R)-2-{4-[4-(8-methoxynaphthalen-2-ylethynyl)-phenyl]-piperazine-1-sulfonylamino}-proponic acid], the IC50 was in the range of 0.01 to 0.1 µM.

As for `CCC[C@H](NS(=O)(=O)N1CCN(c2ccc(C#Cc3cccc(-c4ncc(C)o4)c3)cc2)CC1)C(=O)O` [Compound I-26, (S)-2-(4-{4-[3-(5-methyloxazol-2-yl)-phenylethynyl]-phenyl}-piperazine-1-sulfonylamino)-pentanoic acid], the IC50 was in the range of 0.01 to 0.1 µM.

For the molecule `C[C@@H](NS(=O)(=O)N1CCN(c2ccc(C#Cc3ccc4cccc(-c5ccc[nH]5)c4c3)cc2)CC1)C(=O)O` [Compound I-111, (R)-2-(4-{4-[8-(1H-pyrrol-2-yl)-naphthalen-2-ylethynyl]-phenyl}-piperazine-1-sulfonylamino)-proponic acid], the IC50 is 0.01 to 0.1 µM.

`C[C@@H](NS(=O)(=O)N1CCN(c2ccc(C#Cc3cccc(C(=O)NCc4ccc(Cl)cc4)c3)cc2)CC1)C(=O)O` [Compound I-32, (R)-2-(4-{4-[3-(4-chlorobenzylcarbamoyl)-phenylethynyl]-phenyl}-piperazine-1-sulfonylamino)-proponic acid]: the IC50 was less than 0.01 µM.

`C[C@@H](NS(=O)(=O)N1CCN(c2ccc(C#Cc3ccc4cccc(C(=O)NCc5ccccc5)c4c3)cc2)CC1)C(=O)O` [Compound I-106, (R)-2-{4-[4-(8-benzylcarbamoylnaphthalen-2-ylethynyl)-phenyl]-piperazine-1-sulfonylamino}-proponic acid]: the IC50 was less than 0.01 µM.

Turning to `C[C@@H](NS(=O)(=O)N1CCN(c2ccc(C#Cc3ccc4cccc(/C=C/C(N)=O)c4c3)cc2)CC1)C(=O)O` [Compound I-68, (R)-2-(4-{4-[8-((E)-2-carbamoylvinyl)-naphthalen-2-ylethynyl]-phenyl}-piperazine-1-sulfonylamino)-proponic acid], the IC50 was less than 0.01 µM.

Regarding `CC(C)[C@H](NS(=O)(=O)N1CCN(c2ccc(C#Cc3ccc4cccc(C(N)=O)c4c3)cc2)CC1)C(=O)O` [Compound I-58, (S)-2-{4-[4-(8-carbamoylnaphthalen-2-ylethynyl)-phenyl]-piperazine-1-sulfonylamino}-3-methylbutanoic acid], the IC50 was 0.01 to 0.1 µM.

As to `CC(=O)c1cccc2ccc(C#Cc3ccc(N4CCN(S(=O)(=O)N[C@@H](C(=O)O)C(C)C)CC4)cc3)cc12` [Compound I-101, (R)-2-{4-[4-(8-acetylnaphthalen-2-ylethynyl)-phenyl]-piperazine-1-sulfonylamino}-3-methylbutanoic acid], the IC50 lay in the range of 0.01 to 0.1 µM.

In the case of `CC(C)[C@@H](NS(=O)(=O)N1CCN(c2ccc(C#Cc3ccc4cccc(C(N)=O)c4c3)cc2)CC1)C(=O)O` [Compound I-93, (R)-2-{4-[4-(8-carbamoylnaphthalen-2-ylethynyl)-phenyl]-piperazine-1-sulfonylamino}-3-methylbutanoic acid], the IC50 was in the range of 0.01 to 0.1 µM.

For the molecule `CC(C)NS(=O)(=O)c1cccc2ccc(C#Cc3ccc(N4CCN(S(=O)(=O)N[C@H](C)C(=O)O)CC4)cc3)cc12` [Compound I-80, (R)-2-{4-[4-(8-isopropylsulfamoylnaphthalen-2-ylethynyl)-phenyl]-piperazine-1-sulfonylamino}-proponic acid], the IC50 was in the range of 0.01 to 0.1 µM.

Consider `CCC[C@H](NS(=O)(=O)N1CCN(c2ccc(C#Cc3ccc4cccc(C(C)=O)c4c3)cc2)CC1)C(=O)O` [Compound I-110, (S)-2-{4-[4-(8-acetylnaphthalen-2-ylethynyl)-phenyl]-piperazine-1-sulfonylamino}-pentanoic acid], for which the IC50 fell in the range of 0.01 to 0.1 µM.

`CO/N=C(\C)c1cccc2ccc(C#Cc3ccc(N4CCN(S(=O)(=O)N[C@H](C)C(=O)O)CC4)cc3)cc12` [Compound I-95, (R)-2-{4-[4-(8-{1-[(E)-methoxyimino]-ethyl}-naphthalen-2-ylethynyl)-phenyl]-piperazine-1-sulfonylamino}-proponic acid]: the IC50 lay within 0.01 to 0.1 µM.

Turning to `C[C@@H](NS(=O)(=O)N1CCN(c2ccc(C#Cc3ccc4cccc(C(=O)NCCNC(=O)OC(C)(C)C)c4c3)cc2)CC1)C(=O)O` [Compound I-62, (R)-2-(4-{4-[8-(2-tert-butoxycarbonylaminoethylcarbamoyl)-naphthalen-2-ylethynyl]-phenyl}-piperazine-1-sulfonylamino)-proponic acid], the IC50 is 0.01 to 0.1 µM.

As to `Cc1cnc(-c2cccc3ccc(C#Cc4ccc(N5CCN(S(=O)(=O)N[C@H](C)C(=O)O)CC5)cc4)cc23)o1` [Compound I-108, (R)-2-(4-{4-[8-(5-methyloxazol-2-yl)-naphthalen-2-ylethynyl]-phenyl}-piperazine-1-sulfonylamino)-proponic acid], the IC50 lay in the range of 0.01 to 0.1 µM.

On to `CCNC(=O)c1cccc2ccc(C#Cc3ccc(N4CCN(S(=O)(=O)N[C@H](C)C(=O)O)CC4)cc3)cc12` [Compound I-104, (R)-2-{4-[4-(8-ethylcarbamoylnaphthalen-2-ylethynyl)-phenyl]-piperazine-1-sulfonylamino}-proponic acid], for which the IC50 was less than 0.01 µM.
